The values that follow come from ChEMBL document CHEMBL1201862, “PubChem BioAssay data set” (2004).

Among the test systems are HOP-62; HCT-116; MDA-MB-435; ACHN; NCI-H460; PC-3; 786-0; UO-31; RPMI-8226; SNB-75; MDA-MB-231; EKVX; CAKI-1; MDA-N; OVCAR-8; HT-29; UACC-62; HL-60; TK-10; CCRF-CEM.
What all share (experiment): growth of human tumour cells (NCI), 48 h

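Results reflect a 48-hour exposure of cells in 96-well plates to compound at five concentrations. Abbreviation: GI50, concentration required for 50% inhibition of growth.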 Calls of active or inactive are those of the source. Cut-off read from the data, not from the text of the source: active = GI50 up to about 1.1 µM and inactive = higher.

Consider `O=CCC1CCCCC1`, for which the GI50 in the assay with HOP-62, with HCT-116, with MDA-MB-435, in the assay on ACHN, in the assay with NCI-H460 and with PC-3 was > 100 µM (inactive) each time. The GI50 with 786-0, in the assay on UO-31, in the assay with RPMI-8226, in the assay with SNB-75, in the assay on MDA-MB-231 and with EKVX was > 100 µM (inactive) throughout. Further, the GI50 in the assay with CAKI-1 and with MDA-N was > 100 µM (inactive) in each case.
Turning to `O=C(Nc1ccc2nc(-c3ccccc3)cn2c1)Oc1ccccc1`, the GI50 with HOP-62 was > 100 µM (inactive); in the assay on HCT-116, 45.9 µM (inactive); in the assay with MDA-MB-435 it was 13.9 µM (inactive); with ACHN it was > 100 µM (inactive); in the assay with NCI-H460, 33.1 µM (inactive); in the assay on PC-3, > 100 µM (inactive). The GI50 was 59.7 µM (inactive) in the assay on OVCAR-8; 91 µM (inactive) in the assay with 786-0; > 100 µM (inactive) with UO-31; 43.1 µM (inactive) with HT-29; 37.9 µM (inactive) with UACC-62; 2.99 µM (inactive) in the assay with SNB-75. The GI50 is > 100 µM (inactive) with MDA-MB-231; 30.9 µM (inactive) with HL-60; 80 µM (inactive) with EKVX; 53.7 µM (inactive) in the assay on TK-10; 39.7 µM (inactive) in the assay with CCRF-CEM; 97.9 µM (inactive) in the assay on CAKI-1. In addition, the GI50 with MDA-N was 14 µM (inactive).
`COc1ccc(P2(=S)Oc3ccccc3-c3ccccc3O2)cc1`: the GI50 is 0.44 µM (active) with HOP-62; 0.524 µM (active) in the assay on HCT-116; 0.144 µM (active) with MDA-MB-435; 0.728 µM (active) in the assay on ACHN; 0.35 µM (active) in the assay on NCI-H460; 0.193 µM (active) with PC-3. Further, the GI50 in the assay on OVCAR-8 is 0.802 µM (active); with 786-0 it was 0.531 µM (active); in the assay on UO-31 it was 0.518 µM (active); with HT-29 it was 0.274 µM (active); with UACC-62, 0.733 µM (active); in the assay with SNB-75, 0.337 µM (active). Besides, the GI50 is 0.439 µM (active) in the assay on MDA-MB-231; 0.284 µM (active) with HL-60; 0.356 µM (active) in the assay on CCRF-CEM; 0.271 µM (active) with CAKI-1; 0.147 µM (active) in the assay on MDA-N.
Regarding `COc1cccc(NC(=O)c2c(SC)c(C#N)c(=O)n(N)c2N)c1`, the GI50 in the assay on HOP-62 was 50.9 µM (inactive); with HCT-116, 35.2 µM (inactive); with MDA-MB-435, 97.5 µM (inactive); with ACHN it was > 100 µM (inactive); in the assay with NCI-H460, 67.1 µM (inactive); with PC-3 it was 49.8 µM (inactive). Besides, the GI50 is 47.9 µM (inactive) with OVCAR-8; 28.6 µM (inactive) in the assay on 786-0; 52 µM (inactive) with HT-29; 61.5 µM (inactive) with UACC-62; 1.46 µM (inactive) in the assay with SNB-75; 95.7 µM (inactive) in the assay on MDA-MB-231. Further, the GI50 in the assay on EKVX was > 100 µM (inactive); with TK-10, > 100 µM (inactive); in the assay with CCRF-CEM, 35.2 µM (inactive); with CAKI-1, > 100 µM (inactive); in the assay with MDA-N it was > 100 µM (inactive).
In the case of `O=C1C=CC2(O[C@H](c3ccccc3)[C@@H](c3ccccc3)O2)C(SC(=O)c2ccccc2)C1` (stereo partly specified), the GI50 in the assay with HOP-62 is 1.38 µM (inactive); with HCT-116, 0.355 µM (active); with MDA-MB-435, 2.02 µM (inactive); with ACHN, 1.37 µM (inactive); in the assay on NCI-H460 it was 3.02 µM (inactive); in the assay on PC-3 it was 2.13 µM (inactive). Also, the GI50 in the assay on OVCAR-8 was 0.201 µM (active); in the assay on 786-0, 0.385 µM (active); in the assay on UO-31, 1.37 µM (inactive); in the assay on HT-29, 2.03 µM (inactive); with UACC-62 it was 2.34 µM (inactive); with RPMI-8226, 0.979 µM (active). In addition, the GI50 in the assay with SNB-75 is 2.09 µM (inactive); with MDA-MB-231 it was 3.9 µM (inactive); in the assay with HL-60, 1.84 µM (inactive); in the assay on EKVX, 0.182 µM (active); with TK-10, 1.68 µM (inactive); in the assay on CAKI-1, 1.67 µM (inactive). Also, in the assay on MDA-N, the GI50 was 1.43 µM (inactive).
Consider `NC1CC(=O)c2cc(Cl)sc21` (stereo unspecified), for which the GI50 in the assay on HOP-62, with HCT-116, in the assay on MDA-MB-435, with ACHN, in the assay on NCI-H460 and in the assay on PC-3 was > 100 µM (inactive) in each case. The GI50 with OVCAR-8, in the assay with 786-0, with UO-31, in the assay with HT-29, in the assay on UACC-62 and in the assay on SNB-75 was > 100 µM (inactive) throughout. Besides, the GI50 in the assay with MDA-MB-231, in the assay on HL-60, in the assay with EKVX, with TK-10, in the assay with CCRF-CEM and in the assay on CAKI-1 was > 100 µM (inactive) throughout. For the same molecule, the GI50 in the assay with MDA-N is > 100 µM (inactive).
Turning to `O=C(NNc1cn[nH]c(=O)c1Cl)/C(=C/c1ccc2c(c1)OCO2)NC(=O)c1ccccc1`, the GI50 with HOP-62 was 57.1 µM (inactive); in the assay on HCT-116, 34.8 µM (inactive); in the assay on MDA-MB-435 it was 79.4 µM (inactive); with ACHN, 59.8 µM (inactive); in the assay with NCI-H460 it was 35.6 µM (inactive); in the assay with PC-3, 61.2 µM (inactive). Also, the GI50 in the assay on OVCAR-8 is 36.7 µM (inactive); in the assay on 786-0, 38.5 µM (inactive); in the assay on UO-31, 48.2 µM (inactive); in the assay on HT-29 it was 41.5 µM (inactive); in the assay with UACC-62, 35.2 µM (inactive); in the assay on SNB-75, 24.9 µM (inactive). Also, the GI50 in the assay on MDA-MB-231 was > 100 µM (inactive); in the assay on EKVX, 19.1 µM (inactive); with TK-10 it was 34 µM (inactive); with CAKI-1, 22.9 µM (inactive); in the assay with MDA-N, 44.7 µM (inactive).
`Nc1c(C(=O)O)nnc2cc(Cl)ccc12`: the GI50 was > 100 µM (inactive) with HOP-62; > 100 µM (inactive) in the assay with HCT-116; > 100 µM (inactive) in the assay with MDA-MB-435; 97.5 µM (inactive) in the assay on ACHN; > 100 µM (inactive) with NCI-H460; > 100 µM (inactive) in the assay on PC-3. Moreover, the GI50 in the assay with OVCAR-8 was > 100 µM (inactive); in the assay on 786-0, > 100 µM (inactive); in the assay with UO-31, > 100 µM (inactive); in the assay with HT-29 it was > 100 µM (inactive); in the assay with UACC-62, 32 µM (inactive); in the assay with SNB-75, > 100 µM (inactive). In addition, the GI50 in the assay on MDA-MB-231, with HL-60, in the assay with EKVX, in the assay on TK-10, with CCRF-CEM and in the assay on CAKI-1 was > 100 µM (inactive) in each case. In addition, the GI50 in the assay with MDA-N was > 100 µM (inactive).
As to `CCCC1c2c(ccc3ccccc23)Oc2ccc3ccccc3c21`, the GI50 was > 100 µM (inactive) in the assay on HOP-62; 20.7 µM (inactive) in the assay on HCT-116; 41.4 µM (inactive) with MDA-MB-435; 31 µM (inactive) in the assay with ACHN; 88.3 µM (inactive) in the assay on NCI-H460; 64.4 µM (inactive) in the assay on PC-3. The GI50 with OVCAR-8 was > 100 µM (inactive); in the assay with 786-0 it was > 100 µM (inactive); in the assay with UO-31 it was > 100 µM (inactive); in the assay on HT-29, 28.1 µM (inactive); with UACC-62, 84.9 µM (inactive); in the assay on RPMI-8226, 45.2 µM (inactive). Moreover, the GI50 was > 100 µM (inactive) in the assay with SNB-75; 31.7 µM (inactive) in the assay on MDA-MB-231; 33.5 µM (inactive) in the assay with EKVX; 35.7 µM (inactive) in the assay with TK-10; > 100 µM (inactive) in the assay with CAKI-1; 39.6 µM (inactive) with MDA-N.
For `CC1=C(C)C(=O)C(C2=C(C3=CC(=O)C(C)=C(C)C3=O)C(=O)C(C)=C(C)C2=O)=CC1=O`, the GI50 in the assay on HOP-62 is 18.7 µM (inactive); in the assay with HCT-116, 5.45 µM (inactive); with MDA-MB-435, 3.52 µM (inactive); with ACHN it was 5.79 µM (inactive); with NCI-H460 it was 14.9 µM (inactive); in the assay on PC-3, 4.62 µM (inactive). The GI50 in the assay on OVCAR-8 is 4.41 µM (inactive); with 786-0, 5.06 µM (inactive); in the assay with UO-31 it was 4.59 µM (inactive); in the assay with HT-29, 3.01 µM (inactive); in the assay with UACC-62 it was 10.5 µM (inactive); in the assay on SNB-75 it was 16.6 µM (inactive). Moreover, the GI50 is 2.07 µM (inactive) in the assay with MDA-MB-231; > 100 µM (inactive) in the assay with HL-60; 20.8 µM (inactive) in the assay on EKVX; 12 µM (inactive) with TK-10; > 100 µM (inactive) with CCRF-CEM; 3.44 µM (inactive) in the assay on CAKI-1. For the same molecule, the GI50 in the assay with MDA-N is 2.65 µM (inactive).
Consider `Cc1cc(S(=O)(=O)N=C2NCC(C)(C)CN2)c(S)cc1Cl`, for which the GI50 with HOP-62 was 52.6 µM (inactive); with HCT-116, 27.5 µM (inactive); with MDA-MB-435, 23.2 µM (inactive); in the assay with ACHN it was 24.1 µM (inactive); in the assay on NCI-H460, 27.3 µM (inactive); in the assay on PC-3, 30.3 µM (inactive). The GI50 is 27 µM (inactive) with OVCAR-8; 32.1 µM (inactive) in the assay with 786-0; 44.1 µM (inactive) in the assay with UO-31; 19.3 µM (inactive) in the assay on HT-29; 25.3 µM (inactive) with UACC-62; 48.5 µM (inactive) with SNB-75. Further, the GI50 with MDA-MB-231 is 43.4 µM (inactive); in the assay on HL-60 it was 25.8 µM (inactive); in the assay on EKVX it was 48.8 µM (inactive); in the assay with TK-10 it was 39 µM (inactive); in the assay on CAKI-1 it was 52 µM (inactive); with MDA-N, 22.2 µM (inactive).
